Assay results from patent US12281077B2, “Solid forms of n-tert-butyl-4[[2-(5-chloro-2-hydroxy-phenyl)acetyl]amino]pyridine-2-carboxamide” (TMEM16A LIMITED, priority 2019, dated 2025).
“Also recorded” adds a separate entry of the source. Like-named read-outs stand apart in the source and are kept apart here. Each block holds one molecule with its values, some of them ahead of it.

What was measured:
Assay type in all cases: physicochemical
[1] = Competitive suspension equilibrations in acetonitrile; settings: acetonitrile (20 vol)
From the text: Form A of Compound 1 and the appropriate other form(s) of Compound 1 were suspended in acetonitrile (20 vol). […] When completed, the products were isolated, oven dried and analysed by XRPD.

[2] = Thermocycling of Form A, Form B(I) and Form B(II) in purified water; settings: purified water (10 vol), −10 to +10° C., ±0.5° C./minute, 75 h
Procedure: Samples of Compound 1, Form A, Form B(I) and Form B(II) were charged to separate Crystal 16 blank, glass vials and purified water (1 ml, 10.0 vol) was added each vial. Each vial underwent thermocycling from −10 to +10° C. at a ramp rate of ±0.5° C./minute, over 75 h.

[3] = Suspension equilibrations of Form A (Example 7)
Procedure: Compound 1 Form A, (ca 50 mg, 1.0 wt) and the appropriate solvent (1000 μl, 20 vol) were charged to separate vessels and stirred for 7 days at 20° C. After this time the products were cooled, isolated by filtration, washed with recycled maturation solvent, dried under reduced pressure at 40° C. and analysed by XRPD for evidence of alternative crystalline forms.
Separate portions of Compound 1, Form A (ca 50 mg, 1.0 wt.), and the appropriate solvent (1000 μl, 20 vol.) were charged to separate vessels and stirred for 7 days at 40° C. After this time, the products were cooled, isolated by filtration, washed with recycled maturation solvent, dried under reduced pressure at 40° C. and analysed by XRPD for evidence of alternative crystalline forms. N.B. water was also included in this screen. • All of the products corresponded to Form A, except the product isolated from tBME (Form D), and from THF (Form G; see FIG. 18). […] C. Aqueous Suspension Equilibrations of Form A at 20° C.
Separate portions of Compound 1, Form A (ca 50 mg, 1.0 wt.), and the appropriate solvent (950 μl, 19 vol) and purified water (50 μl, 1.0 vol) were charged to separate vessels and stirred for 7 to 10 days at 20° C. […] Form C is an anhydrous form, and sometimes occurs in the presence of aromatic solvents (toluene and trifluorotoluene).

[4] = Dynamic vapour sorption (DVS) of Form A
Procedure: The moisture sorption properties of the feed API were analysed by DVS (DVS Intrinsic,
Surface Measurement System). Approximately 50 mg of API was weighed into an aluminium pan and loaded into the instrument at 25° C. The sample was allowed to equilibrate under dry atmosphere (0% relative humidity) for 1 hour before increasing the humidity from 0% to 30% at 5% step increment and from 30% to 90% at 10% step increment. A desorption cycle was also applied from 90% to 30% (10% step) and from 30% to 0% (5% step). A rate of change by time was set as the equilibrium parameter (1 hour each step). Kinetic and isotherm graphs were calculated.

[5] = Thermocycling of Form B(I) in buffered aqueous suspensions (Form A control); settings: −10° C. to +40° C.
Procedure: Form B(I) was prepared in the relevant formulation under sterile conditions. The samples were thermocycled for approximately 202 complete cycles. Off-line analyses of the suspensions were performed by polarised light microscopy and end point sampling was performed on the isolated solid pellets of the suspensions after centrifugation. The thermocycling incorporated a wide temperature range (−10° C. to +40° C.). A parallel study was performed using micronised Form A as control.
In all cases, the suspension volume was 2 ml and thermocycling was carried out over a temperature range −10° C. to +40° C. at a rate of change of 1° C./min for a duration of 336 hours (14 days) and […] cycles.
At daily intervals, a droplet from each thermocycle suspension was withdrawn, placed on a microscope slide and photographed. After 14 days constant thermocycling, the suspensions were filtered, isolable solids were oven dried and analysed for evidence of form change and change in chemical purity.

[6] = Aqueous surfactant equilibration of Form A: conversion into Form B monitored by XRPD
Procedure: A sample of Form A was micronised using an AS100 spiral jet mill (Alpine) with a ZD9 screw dosing system at a milling gas pressure of 5.0 bar (18° C.) and an injection gas pressure of 6.0 bar (18° C.). Feed rate was 350 g/hr.
Form A and micronised Form A were added to purified water containing the surfactants shown in Table 6, and the mixtures were stirred at 20° C.
Sub samples (300 to 500 μl) were withdrawn at the appropriate time points. The mixtures were centrifuged, the clarified supernatant was decanted, and the pellet was oven dried (20° C., 24 h) and analysed by XRPD. […] The time taken for complete conversion of Form A into Form B was concluded when Form A was no longer detectable by XRPD.
A micelle is an aggregate of surfactant molecules dispersed in a liquid colloid. Micelles form only when the concentration of surfactant is greater than the critical micelle concentration (CMC). • Surf 1: TWEEN® 80 (polysorbate 80; polyoxyethylene sorbitan monooleate) Critical Micellar Concentration (CMC) 13-15 mg/litre [actual concentration used=1 mg/ml, 1000 mg/litre>CMC] • Surf 2: TWEEN® 20 (polysorbate 20; polyethylene glycol sorbitan monolaurate) 20 Critical Micellar Concentration (CMC) ca 61 mg/litre [actual concentration used=0.5 mg/ml, 500 mg/litre>CMC] • Surf 3: SPAN® 20 (sorbitan monolaurate) no CMC in water, too hydrophobic and yet still exerted an inhibitory effect on the form conversion • Surf 4: TWEEN® 80 Critical Micellar Concentration (CMC) 13-15 mg/litre [actual concentration used=0.01 mg/ml, 10 mg/litre<CMC] • TWEEN® surfactants are soluble in water and SPAN® surfactants are oil soluble and not able to form micelles in water.

[7] = Suspension equilibration of Form B(II) in acetonitrile/water
Procedure: To further investigate the stability hierarchy of Form B (I) and Form B (II), an equal portion of both Form B (I) and Form B (II) were competitively slurry ripened in 4 to 1 MeCN/Water (w/w) for 3 days.
One portion of Form B(II) (1.06 g) was charged with 4 to 1 v/v acetonitrile/water (15 vol, 15 ml). This was stirred at room temperature with a flow of nitrogen. The mixture was subsampled at t=4 h and t=23 h. The subsamples were centrifuged down (13400 rpm for 15 min), supernatants were removed and dried overnight in oven at 40° C. under reduced pressure.

[8] = Compaction of Forms B(I) and B(II) (ca 10 tonnes)
From the text: Assuming that the inconsistencies between the dehydration behaviours of the two batches were attributed to different locations and bindings of their water occupancies, both were examined after 10 tonne compaction, to determine if their dehydration features were conserved or altered after the application of equal pressure treatments.
A finely divided specimen of Form B(II) was applied evenly to the smooth surface of the lower sample anvil that was located inside the compression cell apparatus. A second smoothed face anvil was placed above the first and the sample was pressed into place using finger pressure. The sealed sample cell was then evacuated under house vacuum pressure for at least 5 minutes. An axial load of ca 10 metric tonnes was applied to the upper anvil and the specimen was maintained under a state of unilateral compression for at least 15 minutes. After which time, the apparatus was dismantled and the product was retrieved from the sample holder and analysed to determine if any phase modifications had taken place.

[9] = Suspension equilibration of Form B in anhydrous acetonitrile; settings: room temperature
Procedure: One portion of Form B(II) (1.01 g) was charged with anhydrous acetonitrile (15 vol, 15 ml).
This was stirred at room temperature with a flow of nitrogen. The mixture IPC was subsampled at t=3 h and t=23 h. The subsampled mixtures were centrifuged down (13400 rpm for 15 min), supernatants were removed and dried overnight in oven at 40° C. under reduced pressure. The remaining solid was dried (t=2 days) in oven overnight under reduced pressure at 40° C. overnight. The dried white solid (0.54 g, 54% yield not corr.) was analysed by XRPD and DSC.
A similar procedure was carried out for a portion of Form B(I) (1.06 g). Int his case, the mixture was subsampled at t=5 h and isolation was carried out at t=5 days. The uncorrected yield was 66%.

[10] = Suspension equilibration of Form B(II) in purified water; settings: room temperature
Procedure: One portion of Form B(II) (1.0 g) was charged with purified water (15 vol, 15 ml). This was stirred at room temperature with a flow of nitrogen for 20 h. The mixture was subsampled at t=2 h and t=20 h. The subsampled mixture was centrifuged down (13400 rpm for 15 min) and supernatant was removed. The remaining solid was dried (at t=3 days) in the oven under reduced pressure at 40° C. overnight. The dried white solid (A0903-184-C1, 0.84 g, 83% yield not corr.). The result for the sample at 3 days are not shown as these are the same as the subsample taken at 20 hours.

[11] = citrate buffered surfactant suspensions, 1° C./min, 14 days
[12] = micronised (particle size 2 μm), 20° C., with or without surfactant

Output form (XRPD) ([1]; 40 ° C., stirred 7 days): Form A
Compound: CC(C)(C)NC(=O)c1cc(NC(=O)Cc2cc(Cl)ccc2O)ccn1 [Form A + Form D (1/1 w/w)]

Output form (XRPD) ([1]; 20 ° C.): Form A
Compound: CC(C)(C)NC(=O)c1cc(NC(=O)Cc2cc(Cl)ccc2O)ccn1 [Form A + Form F (1/1 w/w)]

form change by XRPD and DSC after thermocycling [2]: did not change
form after suspension equilibration in purified water only (XRPD) ([3]; 20° C., 7 to 10 days): partial conversion into Form B
form after suspension equilibration in purified water (XRPD) ([3]; 40° C., 7 days): Form A, no Form B was evident
hydrate formation, XRPD repeated after the DVS test [4]: no hydrate was formed
hygroscopicity / moisture affinity by DVS [4]: not hygroscopic
change in mass (uptake of water) by DVS ([4]; 90% relative humidity (RH), 25° C.): 0.02%
form after thermocycling (XRPD) ([5]; citrate buffered Tween® 20/Span® 22, 14 days, 1° C./min): converted to Form B
form after thermocycling (XRPD) ([5]; citrate buffered Tween® 80, 14 days, 1° C./min): converted to Form B
time point of first morphological change (polarised light microscopy) ([5]; citrate buffered surfactant suspensions, 1° C./min): eight day
form stability to constant thermocycling (XRPD, DSC, TGA, microscopy) [5, 11]: changed into Form B(I)
chemical purity after thermocycling ([5]; 14 days, accompanying the form change): No reduction in chemical purity
Output form (XRPD) ([1]; 40 ° C., stirred 7 days): Form A
storage stability of Form A in pre-made composition (surfactant present) ([6]; 20 to 40° C. storage conditions): 120 h
Form B in aqueous suspension of Form A ([6]; 24 hour time point): no Form B can be detected
time after which micronised Form A had almost completely converted into Form B [6, 12]: 146 h
time after which micronised Form A had started to convert to Form B [6, 12]: 48 h
Compound: CC(C)(C)NC(=O)c1cc(NC(=O)Cc2cc(Cl)ccc2O)ccn1 [Form A, N-tert-Butyl-4-[[2-(5-chloro-2-hydroxy-phenyl)acetyl]amino]pyridine-2-carboxamide]
form stability in solvent suspension (XRPD) ([3]; anhydrous solvents (20 vol), 20° C., 7 days): resilient to prolonged solvent mediated treatments
form present in aqueous suspension of Form A ([6]; after 8 days): substantially all of the Compound 1 was present as the Form B hydrate crystalline form

resulting solid (DSC) after competitive slurry ripening ([7]; 4 to 1 MeCN/Water (w/w), 3 days): Form B (I)
Compound: CC(C)(C)NC(=O)c1cc(NC(=O)Cc2cc(Cl)ccc2O)ccn1 [Form B (I) and Form B (II)]

form change by XRPD and DSC after thermocycling [2]: unchanged
form stability to constant thermocycling (XRPD, DSC, TGA, microscopy) [5, 11]: stable
form after 10 tonne compaction (DSC) [8]: unchanged
form after suspension equilibration in anhydrous acetonitrile (XRPD) ([9]; 5 hours, 5 days similar): rapidly converted to Form A
Compound: CC(C)(C)NC(=O)c1cc(NC(=O)Cc2cc(Cl)ccc2O)ccn1 [Form B(I), N-tert-Butyl-4-[[2-(5-chloro-2-hydroxy-phenyl)acetyl]amino]pyridine-2-carboxamide]

form after suspension equilibration in purified water (DSC) ([10]; 20 hours and three days): converted to Form B(I)
degree of crystallinity by XRPD before compression [8]: 87.2%
form after 10 tonne compaction (DSC) [8]: converted to Form B(I)
degree of crystallinity by XRPD after compression ([8]; ca 10 metric tonnes): 80.3%
form after 10 tonne compaction (DSC) ([8]; listed as Form B (II)): Form B (I) emerged
form after suspension equilibration in anhydrous acetonitrile (XRPD) ([9]; 3 hours, 23 hours and 3 days substantially the same): rapidly converted to Form A
Compound: CC(C)(C)NC(=O)c1cc(NC(=O)Cc2cc(Cl)ccc2O)ccn1 [Form B(II), N-tert-Butyl-4-[[2-(5-chloro-2-hydroxy-phenyl)acetyl]amino]pyridine-2-carboxamide]
form change by XRPD and DSC after thermocycling [2]: almost all converted to the unimodal event
form after stirring in 4 to 1 v/v acetonitrile/water (DSC, XRPD) ([7]; room temperature, t=4 h and t=23 h): production of Form B(I); also recorded: converted to Form B(I)
form after suspension equilibration in purified water (DSC) ([10]; 2 hours): only the unimodal event was observed; also recorded: converted to Form B(I)
